The structures appear in SMILES notation.

In one assay the target is T1, Kir3.1/3.4 (Rattus norvegicus, UniProt P48548+P63251).
T1 construct: expressed in transfected cells
T1 sequence (P63251 1-501): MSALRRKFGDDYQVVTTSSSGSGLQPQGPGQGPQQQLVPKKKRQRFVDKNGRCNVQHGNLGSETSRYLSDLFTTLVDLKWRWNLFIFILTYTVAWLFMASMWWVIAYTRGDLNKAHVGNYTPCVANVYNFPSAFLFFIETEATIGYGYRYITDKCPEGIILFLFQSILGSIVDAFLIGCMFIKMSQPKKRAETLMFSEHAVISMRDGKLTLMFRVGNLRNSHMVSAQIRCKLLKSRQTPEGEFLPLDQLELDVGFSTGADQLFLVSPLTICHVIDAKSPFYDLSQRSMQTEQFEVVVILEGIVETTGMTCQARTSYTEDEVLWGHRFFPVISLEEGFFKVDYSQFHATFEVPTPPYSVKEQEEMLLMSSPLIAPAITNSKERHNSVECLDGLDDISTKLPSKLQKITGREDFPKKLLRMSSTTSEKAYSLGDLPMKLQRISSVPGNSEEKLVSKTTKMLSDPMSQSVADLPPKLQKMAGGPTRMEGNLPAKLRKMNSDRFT
T1 sequence (P48548 1-419): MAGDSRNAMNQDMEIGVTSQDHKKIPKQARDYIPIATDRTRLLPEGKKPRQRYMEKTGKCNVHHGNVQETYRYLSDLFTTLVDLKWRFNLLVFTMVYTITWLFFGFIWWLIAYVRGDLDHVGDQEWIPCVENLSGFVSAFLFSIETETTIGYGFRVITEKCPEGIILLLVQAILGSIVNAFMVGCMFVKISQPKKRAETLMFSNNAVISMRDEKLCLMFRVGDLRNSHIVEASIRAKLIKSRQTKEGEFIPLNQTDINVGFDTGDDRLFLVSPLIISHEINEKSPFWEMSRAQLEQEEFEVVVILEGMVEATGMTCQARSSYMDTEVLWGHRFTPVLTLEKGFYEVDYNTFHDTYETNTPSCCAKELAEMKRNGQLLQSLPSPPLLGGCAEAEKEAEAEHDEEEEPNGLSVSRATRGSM
Put plainly: Kir3.1/3.4 Electrophysiology Method (manual whole-cell patch clamp). The format is cell-based. The note with it: Electrophysiology Method (TABLE 1). The method in brief: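 Manual whole-cell patch clamp on HEK293 cells stably expressing rat Kir3.1/3.4, with GTPγS in the pipette. Cells were held at −60 mV and stepped to +60 mV, then ramped to −140 mV every 10 s. Steady-state inhibition at −140 mV was measured after subtracting leak recorded in zero-K+ bath.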
A general note: In patch-clamp work, channel activity is measured electrically.
`Fc1ccc(-c2csc3ncnc(N4CCC(COCCN5CCOCC5)CC4)c23)cc1` [Example 21, 4-[2-[[1-[5-(4-fluorophenyl)thieno[2,3-d]pyrimidin-4-yl]-4-piperidyl]methoxy]ethyl]morpholine] returned an IC50 of under 500 nM. Consider `c1ccc(-c2csc3ncnc(N4CCC(COCCN5CCCC5)CC4)c23)nc1` [Example 320], for which the IC50 lay in the range of 500 to 3000 nM.

Turning to `CC(C)NC(=O)c1sc2ncnc(N3C4CCC3CC(N3CCCC3)C4)c2c1-c1ccccc1` (stereo not drawn) [Example 354], the IC50 was under 500 nM. With `c1ccc(-c2csc3ncnc(N4C5CCC4CC(N4CCC4)C5)c23)cc1` (stereo not drawn) [Example 326], the IC50 was under 500 nM. The compound `CC(C)c1csc2ncnc(N3CCC(CNCCC4CCCN4C)CC3)c12` (stereo not drawn) [Example 242] had an IC50 of under 500 nM. `CN(C)C(=O)c1sc2ncnc(N3C4CCC3CC(COCCN3CCCC3)C4)c2c1-c1ccccc1` (stereo not drawn) [Example 356] registered a 50% inhibitory concentration (IC50) of under 500 nM. On to `COCC1CC2CCC(C1)N2c1nc(OC2CC3CC2CN3)nc2scc(-c3ccccc3)c12` (stereo not drawn) [Example 352], for which the IC50 was under 500 nM.

The compound `c1ccc(-c2csc3ncnc(N4CCCC(CNC5CCC5)C4)c23)cc1` (stereo not drawn) [Example 207] had a 50% inhibitory concentration (IC50) of 500 to 3000 nM. With `COCC1CC2CCC(C1)N2c1nc(N2CCOCC2)c2c(-c3ccccc3)csc2n1` (stereo not drawn) [Example 300], the IC50 fell in the range of 500 to 3000 nM. The compound `COC1CCN(CC2CCN(c3ncnc4scc(-c5ccccc5)c34)CC2)C1` (stereo not drawn) [Example 68, 4-[4-[(3-methoxypyrrolidin-1-yl)methyl]-1-piperidyl]-5-phenyl-thieno[2,3-d]pyrimidine] yielded an IC50 of under 500 nM. Still for that read-out and setting: the value for `CNC(=O)c1sc2ncnc(N3CCC(COCCN4CCCC4)CC3)c2c1C(C)C` [Example 134] was 500 to 3000 nM. Regarding `CN1CCN(c2nc(N3CCC(CNC4CCC4)CC3)c3c(-c4ccccc4)csc3n2)CC1` [Example 116], the half-inhibitory concentration (IC50) is under 500 nM. In turn, `O=C(NCCN1CCCC1)C1CCCN(c2ncnc3scc(-c4ccccc4)c23)C1` (stereo not drawn) [Example 268] came in with a half-inhibitory concentration (IC50) of under 500 nM. Turning to `c1ccc(-c2csc3ncnc(N4CC(COCCN5CCCC5)C4)c23)cc1` [Example 273], the IC50 is 500 to 3000 nM. As to `CC(NC1CC1)C1CCN(c2ncnc3scc(-c4ccccc4)c23)CC1` (stereo not drawn) [Example 96, N-[1-[1-(5-phenylthieno[2,3-d]pyrimidin-4-yl)-4-piperidyl]ethyl]cyclopropanamine], the IC50 is under 500 nM. In turn, `NCCNCC1CCN(c2ncnc3scc(-c4ccccc4)c23)CC1` [Example 63, N′-[[1-(5-phenylthieno[2,3-d]pyrimidin-4-yl)-4-piperidyl]methyl]ethane-1,2-diamine] gave an IC50 of under 500 nM. For the compound `c1ccc(-c2csc3nc(C4CC4)nc(N4C5CCC4CC(N4CCC4)C5)c23)cc1` (stereo not drawn) [Example 322], the 50% inhibitory concentration (IC50) was under 500 nM.

The compound `Cc1csc2ncnc(N3CC(CNCCC4CCCN4C)CC3c3ccccc3)c12` (stereo not drawn) [Example 210] showed an IC50 of under 500 nM. Turning to `CC(C)NCC1CCN(c2ncnc3scc(-c4ccccc4)c23)CC1` [Example 187], the concentration for half-maximal inhibition (IC50) was under 500 nM. `CN(C)C1CCCN(CC2CCN(c3nc(N4CCC(C(N)=O)C4)nc4scc(-c5ccccc5)c34)CC2)C1` (stereo not drawn) [Example 123]: the IC50 was under 500 nM. Take `CN1CCC(N(C)CC2CCN(c3nc(N4CC(C(N)=O)C4)nc4scc(-c5ccccc5)c34)CC2)C1` (stereo not drawn) [Example 237]: the concentration for half-maximal inhibition (IC50) was under 500 nM. On to `Cc1ccccc1-c1csc2ncnc(N3C4CCC3CC(NC3CCC3)C4)c12` (stereo not drawn) [Example 344], for which the IC50 was under 500 nM. In turn, `NC(=O)C1CCN(c2nc(N3CCC(COCCN4CCCC4)CC3)nc3scc(-c4ccccc4)c23)C1` (stereo not drawn) [Example 274] displayed an IC50 of under 500 nM. `c1ccc(-c2csc3ncnc(N4CCC(CNCCN5CCCC5)CC4)c23)cc1` [Example 206] came in with a half-maximal inhibitory concentration (IC50) of under 500 nM.

Regarding `CNC(=O)c1sc2ncnc(N3C4CCC3CC(COCCN3CCCC3)C4)c2c1-c1ccccc1` (stereo not drawn) [Example 361], the IC50 was under 500 nM. On to `Fc1ccc(-c2csc3ncnc(N4CCC(CNC5CCC5)CC4)c23)cc1` [Example 78, N-[[1-[5-(4-fluorophenyl)thieno[2,3-d]pyrimidin-4-yl]-4-piperidyl]methyl]cyclobutanamine], for which the IC50 was in the range of 500 to 3000 nM. As to `CN(C)C(=O)c1ccccc1-c1csc2ncnc(N3C4CCC3CC(COCCN3CCCC3)C4)c12` (stereo not drawn) [Example 364], the IC50 was under 500 nM. Same read-out and setting: the value for `CN1CCC(N(C)C(=O)C2CCCN(c3ncnc4scc(-c5ccccc5)c34)C2)C1` (stereo not drawn) [Example 282] was 500 to 3000 nM; that for `NC(=O)C1CCN(CCOC2CC3CC2CN3c2ncnc3scc(-c4ccccc4)c23)C1` (stereo not drawn) [Example 290] was under 500 nM; that for `CC1CC(CNCCC2CCCN2C)CN1c1ncnc2scc(-c3ccccc3)c12` (stereo not drawn) [Example 209] was under 500 nM. On to `c1ccc(-c2csc3ncnc(N4CCC(CNC5CCC5)CC4)c23)cc1` [Example 64, N-[[1-(5-phenylthieno[2,3-d]pyrimidin-4-yl)-4-piperidyl]methyl]cyclobutanamine], for which the IC50 is under 500 nM.

`CN1CCC(N(C)CC2CCN(c3nc(N4CCC(C(N)=O)CC4)nc4scc(-c5ccccc5)c34)CC2)C1` (stereo not drawn) [Example 239] came in with an IC50 of under 500 nM.

A further assay deals with T1, Kir3.1/3.4. Nature of the assay: Kir3.1/3.4 Q-patch Method (automated patch clamp, Sophion Q-patch). It is filed as cell-based. Conditions: HEK293 cells stably-expressing Kir3.1/3.4; current at -120 mV; QPatch-16 or QPatch-48. As for the experimental part: For automated patch-clamp studies using the Sophion Q-patch, accumulative concentration-responses experiments were conducted to determine compound activity against the ion channel target. Voltage-clamp experiments were performed using HEK293 cells stably-expressing Kir3.1/3.4 using either a QPatch-16 or QPatch-48 (Sophion Bioscience A/S). A voltage waveform (VHold−20 mV, step to 60 mV for 100 ms, ramp to −120 mV over 500 ms, hold at −120 mV for 100 ms before returning to VHold) was repeatedly applied to the cells under voltage-clamp at a frequency of 0.1 Hz to elicit Kir3.1/3.4 currents. Mean current at −120 mV was measured in the absence (Icontrol) and presence of drug (IDrug). Assessment of passive leak was performed by removal of external potassium (IZero). Leak current was subtracted from control and drug recordings. Current inhibition (%) was calculated as {1−[(IDrug−IZero)/(IControl−IZero)]}*100. Data were fitted with a sigmoidal function to yield an IC50 and Hill coefficient. Composition of external experimental buffer was (in mM): 40 NaCl, 100 KCl, 5 CaCl2, 1 MgCl2, 10 HEPES pH 7.4. Composition of internal solution was (in mM). 40 K-gluconate, 60 KF, 20 NaCl, 5 Mg-ATP, 0.9 GTPgS, 20 EGTA, pH 7.2. Compounds were formulated in DMSO and diluted in buffer to give a final drug concentration of between […] and a final DMSO concentration of 0.1-0.3%.
For the compound `COc1ccccc1-c1csc2nc(N3C4CCC3CC(CO)C4)nc(N3CCNC(=O)C3)c12` (stereo not drawn) [Example 413, 4-[2-[3-(hydroxymethyl)-8-azabicyclo[3.2.1]octan-8-yl]-5-(2-methoxyphenyl)thieno[2,3-d]pyrimidin-4-yl]piperazin-2-one], the IC50 was under 500 nM. Compound `COCC1CC2CCC(C1)N2c1nc(N2C3CCC2COC3)c2c(-c3ccccc3OC)csc2n1` (stereo not drawn) [Example 395, 8-[2-[3-(methoxymethyl)-8-azabicyclo[3.2.1]octan-8-yl]-5-(2-methoxyphenyl)thieno[2,3-d]pyrimidin-4-yl]-3-oxa-8-azabicyclo[3.2.1]octane] displayed a half-maximal inhibitory concentration (IC50) of 500 to 3000 nM. In turn, `COc1ccccc1-c1csc2nc(N3C4CCC3COC4)nc(N3CCOC(C(N)=O)C3)c12` (stereo not drawn) [Example 419, 4-[5-(2-methoxyphenyl)-2-(3-oxa-8-azabicyclo[3.2.1]octan-8-yl)thieno[2,3-d]pyrimidin-4-yl]morpholine-2-carboxamide] came in with an IC50 of under 500 nM.

As for `COC1CC2CCC(C1)N2c1nc(N2C3CCC2CC(O)C3)nc2scc(-c3ccccc3Cl)c12` (stereo not drawn) [Example 375, 8-[5-(2-chlorophenyl)-4-(3-methoxy-8-azabicyclo[3.2.1]octan-8-yl)thieno[2,3-d]pyrimidin-2-yl]-8-azabicyclo[3.2.1]octan-3-ol], the 50% inhibitory concentration (IC50) was in the range of 500 to 3000 nM. Same read-out and setting: to `COc1ccccc1-c1csc2nc(N3CCNC(=O)C3)nc(N3C4CCC3CC(OC)C4)c12` (stereo not drawn) [Example 380, 4-[4-(3-methoxy-8-azabicyclo[3.2.1]octan-8-yl)-5-(2-methoxyphenyl)thieno[2,3-d]pyrimidin-2-yl]piperazin-2-one] belongs under 500 nM; to `COc1ccccc1-c1csc2nc(N3CCC(C(N)=O)C3)nc(N3C4CCC3CC(OC)C4)c12` (stereo not drawn) [Example 396, 1-[4-(3-methoxy-8-azabicyclo[3.2.1]octan-8-yl)-5-(2-methoxyphenyl)thieno[2,3-d]pyrimidin-2-yl]pyrrolidine-3-carboxamide], under 500 nM; to `NC(=O)C1CN(c2nc(N3C4CCC3COC4)c3c(-c4ccccc4Cl)csc3n2)CCO1` (stereo not drawn) [Example 420, 4-[5-(2-chlorophenyl)-4-(3-oxa-8-azabicyclo[3.2.1]octan-8-yl)thieno[2,3-d]pyrimidin-2-yl]morpholine-2-carboxamide], under 500 nM.

The IC50 is the point on the concentration scale where inhibition reaches its midpoint.

These data come from US9290511B2, “Thieno-pyrimidines, useful as potassium channel inhibitors” (XENTION LIMITED, priority 2011, dated 2016).
